Measured values as given in patent US20250230193A1, “CYCLIC COMPOUND HAVING SELECTIVE KRAS INHIBITORY EFFECT ON HRAS AND NRAS” (CHUGAI SEIYAKU KABUSHIKI KAISHA, priority 2022, published 2025).
Where a SMILES comes first, the peptide text is derived from it. Bridges are numbered along the chain shown (N, C = ends). [ ]: non-standard residue; d: D form. The star is where a group is joined. hPhe(3-Cl-4-CF3) = N[C@@H](CCc1ccc(C(F)(F)F)c(Cl)c1)C(=O)O; NPrPhe(4-CF3) = CCCN[C@@H](Cc1ccc(C(F)(F)F)cc1)C(=O)O; NEtPhe(4-Me) = CCN[C@@H](Cc1ccc(C)cc1)C(=O)O; NMeGly(cPent) = CN[C@H](C(=O)O)C1CCCC1; Hyp = O=C(O)[C@@H]1C[C@@H](O)CN1; NMeD = CN[C@@H](CC(=O)O)C(=O)O; NMeL = CN[C@@H](CC(C)C)C(=O)O; Morpholide = C1CN(*)CCO1; NMeA = CN[C@@H](C)C(=O)O; Piperidide = C1CCN(*)CC1; Ac5c = NC1(C(=O)O)CCCC1; Ac4c = NC1(C(=O)O)CCC1; Sar = CNCC(=O)O

Columns and labels:
[1] = biological target: GDP-bound HRAS wild-type protein (Homo sapiens, UniProt P01112); test: Binding to HRAS by surface plasmon resonance (SPR), Single Cycle Kinetics; conditions: for HRAS/KRAS (ratio of KD for GDP-bound HRAS wild-type to KD for KRAS) / HRAS/KRAS (ratio of KD value with respect to HRAS to KD value with respect to KRAS): SPR; for HRAS/KRAS (ratio of KD value with respect to HRAS to KD value with respect to KRAS): GDP-bound HRAS wild-type vs GDP-bound KRAS wild-type
GDP-bound HRAS wild-type protein, sequence (P01112 whole entry): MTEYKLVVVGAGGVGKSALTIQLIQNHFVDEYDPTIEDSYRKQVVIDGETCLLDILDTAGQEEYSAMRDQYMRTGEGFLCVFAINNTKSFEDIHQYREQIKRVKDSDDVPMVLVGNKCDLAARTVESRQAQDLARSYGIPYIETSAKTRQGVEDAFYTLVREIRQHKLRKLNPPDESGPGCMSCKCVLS

[2] = biological target: GDP-bound NRAS wild-type protein (Homo sapiens, UniProt P01111); test: Binding to NRAS by surface plasmon resonance (SPR), Single Cycle Kinetics; conditions: for NRAS/KRAS (ratio of KD for GDP-bound NRAS wild-type to KD for KRAS) / NRAS/KRAS (ratio of KD value with respect to NRAS to KD value with respect to KRAS): SPR; for NRAS/KRAS (ratio of KD value with respect to NRAS to KD value with respect to KRAS): GDP-bound NRAS wild-type vs GDP-bound KRAS wild-type
GDP-bound NRAS wild-type protein, sequence (P01111 whole entry): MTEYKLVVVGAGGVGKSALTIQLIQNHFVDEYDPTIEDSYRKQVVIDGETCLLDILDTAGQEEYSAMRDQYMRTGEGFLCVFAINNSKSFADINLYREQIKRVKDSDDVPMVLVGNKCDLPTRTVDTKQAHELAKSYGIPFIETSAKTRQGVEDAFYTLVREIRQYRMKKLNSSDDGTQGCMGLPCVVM

SMILES: CCCN1C(=O)CN(C)C(=O)CN(C)C(=O)[C@H]([C@@H](C)CC)NC(=O)[C@H](CC(C)C)N(C)C(=O)C[C@@H](C(=O)N2CCCCC2)N(C)C(=O)[C@H](C2CCCC2)N(C)C(=O)C2(CCCC2)NC(=O)[C@@H]2CCCN2C(=O)[C@H](CCc2ccc(C(F)(F)F)c(Cl)c2)NC(=O)CN(C)C(=O)[C@@H]1Cc1ccc(C(F)(F)F)cc1 [PP0171] ([NMeL]I[Sar][Sar][NPrPhe(4-CF3)][Sar][hPhe(3-Cl-4-CF3)]P[Ac5c][NMeGly(cPent)][NMeD]-Piperidide; lactam N-11)
- HRAS/KRAS (ratio of KD for GDP-bound HRAS wild-type to KD for KRAS) ([1]; KD ratio HRAS/KRAS): C (A compound having a KD ratio of 0.1 or more and less than 3 is denoted as C)
- NRAS/KRAS (ratio of KD for GDP-bound NRAS wild-type to KD for KRAS) ([2]; KD ratio NRAS/KRAS): B (a compound having 3 or more and less than 10 is denoted as B)

SMILES: CCCN1C(=O)CN(C)C(=O)CNC(=O)[C@H]([C@@H](C)CC)NC(=O)[C@H](CC(C)C)N(C)C(=O)C[C@@H](C(=O)N2CCOCC2)N(C)C(=O)[C@H](C2CCCC2)N(C)C(=O)C2(CCC2)NC(=O)[C@@H]2C[C@@H](OCC)CN2C(=O)[C@H](CCc2ccc(C(F)(F)F)c(Cl)c2)NC(=O)CN(C)C(=O)[C@@H]1Cc1ccc(C(F)(F)F)cc1 [PP0397] ([NMeL]IG[Sar][NPrPhe(4-CF3)][Sar][hPhe(3-Cl-4-CF3)][Hyp](Et)[Ac4c][NMeGly(cPent)][NMeD]-Morpholide; lactam N-11)
- HRAS/KRAS (ratio of KD for GDP-bound HRAS wild-type to KD for KRAS) ([1]; KD ratio HRAS/KRAS): C (A compound having a KD ratio of 0.1 or more and less than 3 is denoted as C)
- NRAS/KRAS (ratio of KD for GDP-bound NRAS wild-type to KD for KRAS) ([2]; KD ratio NRAS/KRAS): C (A compound having a KD ratio of 0.1 or more and less than 3 is denoted as C)

SMILES: CCC[C@H]1C(=O)N[C@@H]([C@@H](C)CC)C(=O)N2C[C@@H](OC)C[C@H]2C(=O)N(C)[C@H]2C/C=C\CCN(C2=O)[C@@H](Cc2ccc(C)cc2)C(=O)N(C)CC(=O)N[C@@H](CCc2ccc(C(F)(F)F)c(OC)c2)C(=O)N2C[C@@H](C)C[C@H]2C(=O)NC2(CC(C)(C)C2)C(=O)N(C)[C@@H](C2CCCC2)C(=O)N(C)[C@H](C(=O)N(C)C)CC(=O)N1C [PP2388]
- HRAS/KRAS (ratio of KD value with respect to HRAS to KD value with respect to KRAS) [1]: B (a compound having 3 or more and less than 10 is denoted as B)
- NRAS/KRAS (ratio of KD value with respect to NRAS to KD value with respect to KRAS) [2]: A (a compound having 10 or more and less than 20 is denoted as A)

SMILES: CCOC[C@H]1C(=O)N[C@@H]([C@@H](C)CC)C(=O)N(C)CC(=O)N(C)[C@H]2C/C=C\CCN(C2=O)[C@@H](Cc2ccc(C(F)(F)F)cc2)C(=O)N(C)CC(=O)N[C@@H](CCc2cc(F)c(C(F)(F)F)c(F)c2)C(=O)N2C[C@H](OCC)C[C@H]2C(=O)NC2(CC(C)(C)C2)C(=O)N(C)[C@@H](CC(C)(C)C)C(=O)N(C)[C@H](C(=O)N(C)C)CC(=O)N1C [PP2732]
- HRAS/KRAS (ratio of KD value with respect to GDP-bound HRAS wild-type protein to KD value with respect to KRAS) ([1]; KD ratio HRAS/KRAS, class symbols): A (a compound having 10 or more and less than 20 is denoted as A)
- NRAS/KRAS (ratio of KD value with respect to GDP-bound NRAS wild-type protein to KD value with respect to KRAS) ([2]; KD ratio NRAS/KRAS, class symbols): A (a compound having 10 or more and less than 20 is denoted as A)

SMILES: CC[C@H](C)[C@@H]1NC(=O)[C@H](C(C)C)N(C)C(=O)C[C@@H](C(=O)N(C)CC)N(C)C(=O)[C@H](C2CCCC2)N(C)C(=O)C2(CCC2)NC(=O)[C@@H]2C[C@H](C)CN2C(=O)[C@H](CCc2cc(F)c(C(F)(F)F)c(F)c2)NC(=O)CN(C)C(=O)[C@H](Cc2ccc(C(F)(F)F)cc2)N2CC/C=C\C[C@@H](C2=O)N(C)C(=O)CN(C)C1=O [PP2078]
- HRAS/KRAS (ratio of KD value with respect to HRAS to KD value with respect to KRAS) [1]: A (a compound having 10 or more and less than 20 is denoted as A)
- NRAS/KRAS (ratio of KD value with respect to NRAS to KD value with respect to KRAS) [2]: AA (a compound having 20 or more is denoted as AA)

SMILES: CCO[C@@H]1CCN2C(=O)[C@H](CCc3cc(F)c(C(F)(F)F)c(F)c3)NC(=O)CN(C)C(=O)[C@H](Cc3ccc(C(F)(F)F)cc3)N3CCCC[C@@H](C3=O)N(C)C(=O)CN(C)C(=O)[C@H]([C@@H](C)CC)NC(=O)[C@H](CC(C)C)N(C)C(=O)C[C@@H](C(=O)N3CCOCC3)N(C)C(=O)[C@H](C3CCCC3)N(C)C(=O)C3(CCC3)NC(=O)[C@H]12 [PP1079]
- HRAS/KRAS (ratio of KD value with respect to HRAS to KD value with respect to KRAS) ([1]; KD ratio): B (a compound having 3 or more and less than 10 is denoted as B)
- NRAS/KRAS (ratio of KD value with respect to NRAS to KD value with respect to KRAS) ([2]; KD ratio): B (a compound having 3 or more and less than 10 is denoted as B)

SMILES: CC[C@H](C)[C@@H]1NC(=O)[C@H](C)N(C)C(=O)C[C@@H](C(=O)N2CCOCC2)N(C)C(=O)[C@H](C2CCCC2)N(C)C(=O)C2(CCCC2)NC(=O)[C@@H]2CCCN2C(=O)[C@H](CCc2ccc(C(F)(F)F)c(Cl)c2)NC(=O)CN(C)C(=O)[C@H](Cc2ccc(C)cc2)N(CC)C(=O)CN(C)C(=O)CN(C)C1=O [PP0031] ([NMeA]I[Sar][Sar][NEtPhe(4-Me)][Sar][hPhe(3-Cl-4-CF3)]P[Ac5c][NMeGly(cPent)][NMeD]-Morpholide; lactam N-11)
- HRAS/KRAS (ratio of KD for GDP-bound HRAS wild-type to KD for KRAS) ([1]; KD ratio HRAS/KRAS): C (A compound having a KD ratio of 0.1 or more and less than 3 is denoted as C)
- NRAS/KRAS (ratio of KD for GDP-bound NRAS wild-type to KD for KRAS) ([2]; KD ratio NRAS/KRAS): B (a compound having 3 or more and less than 10 is denoted as B)
